Measured values reported in US4014999A, “Halo-steroidal thioketals for treating inflammation” (Ortho Pharmaceutical Corporation, priority 1976, dated 1977).

Test system: left hind paw inflammation in rats with adjuvant arthritis
Experiment: Therapeutic Treatment of Adjuvant Arthritis in Rats (left hind paw inflammation)
Format: in vivo, Carworth Wistar (Lewis) rats
Procedure: Carworth Wistar (Lewis) rats weighing approximately 200 grams are anesthetized with ether, weighed and their hind paws measured by means of a mercury displacement method. The left hind paw is injected intradermally with heat-killed Mycobacterium tuberculosis in white mineral oil. Measurements of body weight and paw volume are obtained on days 2, 5, 10, 15, 20 and 25. Therapeutic treatment is started on day 15.
Following the injection with Mycobacterium tuberculosis, a primary inflammation develops immediately in the injected paw. Secondary inflammation of the joints of the other legs and feet, nodules on the tail and red spots on the ears develop about day 10-15. The object of the test is to determine the anti-inflammatory effects of the drug treatments.
Groups of rats (five rats/group) are treated as follows: One group receives no Mycobacterium tuberculosis and is the negative control group. One group receives Mycobacterium tuberculosis but no anti-inflammatory drug and is the positive control group. Other groups receive Mycobacterium tuberculosis and either oral or topical test compounds or standard anti-inflammatory agents beginning on day 15 and are considered experimental groups. Experimental anti-inflammatory and standard anti-inflammatory compounds are administered either once every five days, i.e., after grading on days 15 and 20, or once/day on days 15-24.
In the topical studies a measured amount of drug is mixed into about 0.5 ml of SILASTIC* Medical Adhesive (or other appropriate vehicle) and applied to cover the left hind paw. Rats so treated are housed individually to eliminate the removal of the medication by another rat. The following, Tables 1 and 2 illustrate the anti-inflammatory potency and efficacy of the oral and topical treatments.

[1] = oral, once per day, 0.00375 mg/kg
[2] = oral, once per day, 0.00750 mg/kg
[3] = oral, once per day, 0.01500 mg/kg
[4] = oral, once per day, 0.03000 mg/kg
[5] = oral, once per day, 0.06250 mg/kg
[6] = oral, once per day, 0.12500 mg/kg

## CC1(C)O[C@@H]2C[C@H]3[C@@H]4C[C@H](F)C5=CC6(C=C[C@]5(C)[C@@]4(F)[C@@H](O)C[C@]3(C)[C@]2(C(=O)CO)O1)SCCS6 [Compound A, 6α,9-difluoropregna-1,4-diene-11β,16α,17,21-tetrol-3,20-dione-3-ethylenedithioketal-16,17-acetonide]
oral, once every five days, 0.075 mg/kg/5 days
  Percent Inhibition of Left Hind Paw Inflammation: 14.7%
oral, once every five days, 0.150 mg/kg/5 days
  Percent Inhibition of Left Hind Paw Inflammation: 15.3%
oral, once every five days, 0.300 mg/kg/5 days
  Percent Inhibition of Left Hind Paw Inflammation: 18.1%
oral, once every five days, 0.625 mg/kg/5 days
  Percent Inhibition of Left Hind Paw Inflammation: 29.0%
oral, once every five days, 1.250 mg/kg/5 days
  Percent Inhibition of Left Hind Paw Inflammation: 35.0%
oral, once every five days, 2.500 mg/kg/5 days
  Percent Inhibition of Left Hind Paw Inflammation: 44.3%
[1]
  Percent Inhibition of Left Hind Paw Inflammation: 5%
[2]
  Percent Inhibition of Left Hind Paw Inflammation: 9%
[3]
  Percent Inhibition of Left Hind Paw Inflammation: 43%
[4]
  Percent Inhibition of Left Hind Paw Inflammation: 34%
[5]
  Percent Inhibition of Left Hind Paw Inflammation: 60%
[6]
  Percent Inhibition of Left Hind Paw Inflammation: 83%
oral, once per day, 0.25000 mg/kg
  Percent Inhibition of Left Hind Paw Inflammation: 95%
Topical (in SILASTIC Medical Adhesive), once every five days, 0.300 mg/kg/5 days
  Percent Inhibition of Left Hind Paw Inflammation: 31.1%
Topical (in SILASTIC Medical Adhesive), once every five days, 0.625 mg/kg/5 days
  Percent Inhibition of Left Hind Paw Inflammation: 52.6%
Topical (in SILASTIC Medical Adhesive), once every five days, 1.250 mg/kg/5 days
  Percent Inhibition of Left Hind Paw Inflammation: 57.5%
Topical (in SILASTIC Medical Adhesive), once every five days, 2.500 mg/kg/5 days
  Percent Inhibition of Left Hind Paw Inflammation: 64.5%

## CC1(C)O[C@@H]2C[C@H]3[C@@H]4C[C@H](F)C5=CC(=O)C=C[C@]5(C)[C@@]4(F)[C@@H](O)C[C@]3(C)[C@]2(C(=O)CO)O1 [Compound B, fluocinolone acetonide, reference compound]
[1]
  Percent Inhibition of Left Hind Paw Inflammation: 19%
[2]
  Percent Inhibition of Left Hind Paw Inflammation: 15%
[3]
  Percent Inhibition of Left Hind Paw Inflammation: 32%
[4]
  Percent Inhibition of Left Hind Paw Inflammation: 66%
[5]
  Percent Inhibition of Left Hind Paw Inflammation: 76%
[6]
  Percent Inhibition of Left Hind Paw Inflammation: 64%
